According to patent US20230115350A1 (Cedilla Therapeutics, Inc., priority 2021, published 2023):

Columns and labels:
[1] = molecular target: TEAD1 protein (YAP Binding Domain) (Homo sapiens, UniProt P28347); test: TEAD1 lipid pocket compound displacement assay (TR-FRET, Cy5-probe); conditions: 60 minutes incubation at room temperature; TR-FRET 665 nm/620 nm; read-out: CDA IC50
Outline: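 His-tagged TEAD1 YAP-binding domain pre-mixed with a Cy5-labelled lipid-pocket probe and Tb-anti-His antibody; compounds incubated with the complex 60 min at room temperature. TR-FRET read at 665/620 nm; IC50 from 4-parameter non-linear fit of probe displacement.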

[2] = tested on: NCI-H226; test: 72H TEAD Proliferation Assay (Cell Titer-Glo 2.0); type: cell-based; conditions: CTG 2.0, cell line not given
Protocol: The effect of TEAD inhibition on cell proliferation was assayed using Cell Titer Glo (CTG) 2.0 to measure response in mesothelioma cell lines NCI-H226 (ATCC, #CRL-5826) and NCI-H28 (ATCC, #CRL-5820).
The 72H TEAD Proliferation assay utilizes Cell Titer-Glo 2.0 (Promega, #G9243) to measure the proliferation of cells in the presence or absence of compound. Cell Titer-Glo 2.0 determines the amount of viable cells by quantifying ATP (an indication of metabolically active cells). It utilizes the conversion of Luciferin to Oxyluciferin and a luminescent signal with the use of ATP to report the quantity of viable cells in culture. Within cells that are continually growing, ATP is being synthesized to meet their metabolic demands, meanwhile the opposite is true for cells that are dying or slowing down their proliferation and either no longer using ATP or are using less, respectively. The NF2-deficient NCI-H226 has been genetically validated as a cell line that is sensitive to TEAD inhibition. The NF2-wild type NCI-H28 has been genetically validated as a cell line that is not sensitive to TEAD inhibition and grows independently of TEAD activity.
Compounds were screened against the responsive NCI-H226 cell line to assess the compounds' ability to inhibit TEAD and cell growth. Compounds were also screened against the non-responsive NCI-H28 cell line to ascertain whether the inhibition of cell growth was due to inhibition of the target TEAD or whether the inhibition was due to off-target cytotoxicity.
1) Assay ready plates (ARPs) were prepared by Echo acoustic liquid handler. For each compound, duplicate of 10-point half-log dilution series were dispensed in a 384-well microplate (Corning 3571).
5) NCI-H226 or NCI-H28 cells were harvested from culture in Assay Medium 1 and the multidrop Combi reagent dispenser was used to seed cells at 500 cells per 50 ul in each well of the ARPs and one Corning 3571 plate without compounds for Time 0 (TO) readout.
6) The TO plate was incubated for 2 hours at 37° C. with 5% CO2 to allow cells to settle, then the CTG Assay was performed.
7) All ARPs were incubated for 72 hours at 37° C. with 5% CO2, then the CTG Assay was performed for Time 72H (T72) readout.
8) CTG Assay: Bravo liquid handler (Agilent) was used to add 25 ul of CTG 2.0 to all columns of the plate except for Column 24, which was used to subtract out the background. After CTG addition, plates were placed on shaker at 800 RPM for 15 minutes at room temperature and kept in the dark. Luminescence was measured using EnVision multilabel plate reader with ultra-sensitive detection module.
9) Data Analysis: First background luminescence (no CTG wells) was subtracted from luminescence reading of all wells, then TO luminescence was subtracted from T72 luminescence. To compare anti-proliferative effect of compounds, GI50 was obtained by fitting dose response curves with nonlinear regression curve fit.

[3] = molecular target: His-Tev-Avi-TEAD1 (Homo sapiens, UniProt P28347); test: TEAD mass modification assay (iMS); type: binding; conditions: 50 μM compound, 1 hour, room temperature
His-Tev-Avi-TEAD1, sequence (P28347 209-426 limits assumed): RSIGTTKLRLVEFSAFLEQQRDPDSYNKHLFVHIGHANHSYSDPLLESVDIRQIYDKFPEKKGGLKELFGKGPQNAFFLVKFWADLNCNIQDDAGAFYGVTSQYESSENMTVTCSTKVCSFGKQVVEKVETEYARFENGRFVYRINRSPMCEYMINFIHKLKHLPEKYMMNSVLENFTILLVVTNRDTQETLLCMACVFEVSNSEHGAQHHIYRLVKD
Protocol: Compound stock (10 mM) was diluted to 2.5 mM with DMSO and His-Tev-Avi-TEAD1 was diluted to 5 μM with Reaction Buffer (50 mM Tris pH 8.0, 150 mM NaCl, and 1 mM TCEP). Compound (1 μL) is incubated with 49 μL protein at room temperature for 1 hour (final compound concentration was 50 μM). The sample (20 μL) was shipped on dry ice to MSBioworks for iMS analysis.
This assay confirms whether or not TEAD is covalently bound to a test compound (i.e., whether the protein's mass is modified). […] Compounds 80 (see FIG. 2), 89 (see FIG. 3), 73 (see FIG. 4), 53 (see FIG. 5), and 59 (see FIG. 6) were also tested in this fashion.

TEAD1 protein (YAP Binding Domain), sequence (P28347 209-426 limits assumed): as above

C=CC(=O)Nc1ccc(OCc2ccccc2Cl)c(F)c1 [Compound 53, N-(4-((2-chlorobenzyl)oxy)-3-fluorophenyl)acrylamide]
IC50 [1]: 500 to 2000 nM
GI50 ([2]; Homo sapiens, NCI-H226, 72 h): 1000 to 3000 nM
mass modification of TEAD1 (covalent binding) [3]: mass modification of TEAD1

C=CC(=O)Nc1ccc(OCC2CCC(F)(F)CC2)c(F)c1 [Compound 58, N-(4-((4,4-difluorocyclohexyl)methoxy)-3-fluorophenyl)acrylamide]
IC50 [1]: ≤ 250 nM
GI50 ([2]; Homo sapiens, NCI-H226, 72 h): 250 to 1000 nM
mass modification of TEAD1 (covalent binding) [3]: mass shift indicates modification of TEAD1
mass of the protein treated with compound ([3]; untreated protein m/z 30,030.70): 30,344.29 m/z

C=CC(=O)Nc1ccc(OCC2CCC(C(F)(F)F)CC2)c(F)c1 (stereo not shown) [Compound 59, N-(3-fluoro-4-((4-(trifluoromethyl)cyclohexyl)methoxy)phenyl)acrylamide]
IC50 [1]: ≤ 250 nM
GI50 ([2]; Homo sapiens, NCI-H226, 72 h): > 3000 nM
mass modification of TEAD1 (covalent binding) [3]: mass modification of TEAD1

C=CC(=O)Nc1ccc(OCc2ccc(C(F)(F)F)nc2)c(F)c1 [Compound 73, N-(3-fluoro-4-((6-(trifluoromethyl)pyridin-3-yl)methoxy)phenyl)acrylamide]
IC50 [1]: 500 to 2000 nM
GI50 ([2]; Homo sapiens, NCI-H226, 72 h): 250 to 1000 nM
mass modification of TEAD1 (covalent binding) [3]: mass modification of TEAD1

C=CC(=O)Nc1ccc(OCc2cccc(Cl)c2Cl)c(F)c1 [Compound 80, N-(4-((2,3-dichlorobenzyl)oxy)-3-fluorophenyl)acrylamide]
IC50 [1]: ≤ 250 nM
GI50 ([2]; Homo sapiens, NCI-H226, 72 h): 250 to 1000 nM
mass modification of TEAD1 (covalent binding) [3]: mass modification of TEAD1

C=CC(=O)Nc1ccc(C2COc3ccccc3C2)c(F)c1 (stereo not shown) [Compound 120, N-(4-(chroman-3-yl)-3-fluorophenyl)acrylamide]
IC50 [1]: 250 to 500 nM
GI50 ([2]; Homo sapiens, NCI-H226, 72 h): > 3000 nM

C=CC(=O)Nc1ccc(C2COc3ccccc3N2)c(F)c1 (stereo not shown) [Compound 121, N-(4-(3,4-dihydro-2H-benzo[b][1,4]oxazin-3-yl)-3-fluorophenyl)acrylamide]
IC50 [1]: 500 to 2000 nM
GI50 ([2]; Homo sapiens, NCI-H226, 72 h): > 3000 nM

C=CC(=O)Nc1ccc(C2COc3ccccc3O2)c(F)c1 (stereo not shown) [Compound 122, N-(4-(2,3-dihydrobenzo[b][1,4]dioxin-2-yl)-3-fluorophenyl)acrylamide]
IC50 [1]: ≤ 250 nM
GI50 ([2]; Homo sapiens, NCI-H226, 72 h): > 3000 nM

C=CC(=O)Nc1ccc(OC(C)c2cccc(F)c2)c(F)c1 (stereo not shown) [Compound 124, N-(3-fluoro-4-(1-(3-fluorophenyl)ethoxy)phenyl)acrylamide]
IC50 [1]: 250 to 500 nM
GI50 ([2]; Homo sapiens, NCI-H226, 72 h): > 3000 nM

CN(C)C/C=C/C(=O)Nc1ccc(OCc2cccc(F)c2)c(F)c1 [Compound 125, (E)-4-(dimethylamino)-N-(3-fluoro-4-((3-fluorobenzyl)oxy)phenyl)but-2-enamide]
IC50 [1]: > 2000 nM
GI50 ([2]; Homo sapiens, NCI-H226, 72 h): > 3000 nM

C=C=CC(=O)Nc1ccc(OCc2cccc(F)c2)c(F)c1 [Compound 126]
IC50 [1]: ≤ 250 nM
GI50 ([2]; Homo sapiens, NCI-H226, 72 h): 1000 to 3000 nM

C=CC(=O)Nc1cnc(OCc2cccc(F)c2)c(F)c1 [Compound 129, N-(5-fluoro-6-((3-fluorobenzyl)oxy)pyridin-3-yl)acrylamide]
IC50 [1]: 250 to 500 nM
GI50 ([2]; Homo sapiens, NCI-H226, 72 h): > 3000 nM

C=CC(=O)Nc1cc2nc(CCC(C)C)oc2cc1F [Compound 132, N-(6-fluoro-2-isopentylbenzo[d]oxazol-5-yl)acrylamide]
IC50 [1]: 250 to 500 nM
GI50 ([2]; Homo sapiens, NCI-H226, 72 h): ≤ 250 nM

C=CC(=O)Nc1cc2nc(CC3CC3)oc2cc1F [Compound 134, N-(2-(cyclopropylmethyl)-6-fluorobenzo[d]oxazol-5-yl)acrylamide]
IC50 [1]: > 2000 nM
GI50 ([2]; Homo sapiens, NCI-H226, 72 h): 1000 to 3000 nM

C=CC(=O)Nc1cc2nc(C3CCC(F)(F)CC3)oc2cc1F [Compound 135, N-(2-(4,4-difluorocyclohexyl)-6-fluorobenzo[d]oxazol-5-yl)acrylamide]
IC50 [1]: 500 to 2000 nM
GI50 [2]: ≤ 250 nM

C=CC(=O)Nc1cc2nc(CC3CCC(F)(F)CC3)oc2cc1F [Compound 136, N-(2-((4,4-difluorocyclohexyl)methyl)-6-fluorobenzo[d]oxazol-5-yl)acrylamide]
IC50 [1]: 250 to 500 nM
GI50 ([2]; Homo sapiens, NCI-H226, 72 h): 250 to 1000 nM

C=CC(=O)Nc1cc2nc(Cc3ccccc3)oc2cc1F [Compound 137, N-(2-benzyl-6-fluorobenzo[d]oxazol-5-yl)acrylamide]
IC50 [1]: 250 to 500 nM
GI50 ([2]; Homo sapiens, NCI-H226, 72 h): > 3000 nM

C=CC(=O)Nc1cc2nc(C3CCC(F)(F)CC3)oc2cc1F [Compound 138, N-(2-(4,4-difluorocyclohexyl)-6-fluorobenzo[d]oxazol-5-yl)acrylamide]
IC50 [1]: 250 to 500 nM
GI50 [2]: 1000 to 3000 nM

C=CC(=O)Nc1cc2nc(CCC(F)(F)C(F)(F)F)oc2cc1F [Compound 140, N-(6-fluoro-2-(3,3,4,4,4-pentafluorobutyl)benzo[d]oxazol-5-yl)acrylamide]
IC50 [1]: ≤ 250 nM
GI50 ([2]; Homo sapiens, NCI-H226, 72 h): ≤ 250 nM

C=CC(=O)Nc1ccc2oc(CCCC(C)C)nc2c1F [Compound 141, N-(4-fluoro-2-(4-methylpentyl)benzo[d]oxazol-5-yl)acrylamide]
IC50 [1]: 250 to 500 nM
GI50 ([2]; Homo sapiens, NCI-H226, 72 h): 250 to 1000 nM

C=CC(=O)Nc1cc2nc(Cc3ccc(F)cc3)oc2cc1F [Compound 142, N-(6-fluoro-2-(4-fluorobenzyl)benzo[d]oxazol-5-yl)acrylamide]
IC50 [1]: 500 to 2000 nM
GI50 ([2]; Homo sapiens, NCI-H226, 72 h): 1000 to 3000 nM

C=CC(=O)Nc1cc2nc(CC(C)(C)C)oc2cc1F [Compound 143, N-(6-fluoro-2-neopentylbenzo[d]oxazol-5-yl)acrylamide]
IC50 [1]: 500 to 2000 nM
GI50 ([2]; Homo sapiens, NCI-H226, 72 h): 250 to 1000 nM

C=CC(=O)Nc1cc2nc(CCC(F)(F)F)oc2cc1F [Compound 144, N-(6-fluoro-2-(3,3,3-trifluoropropyl)benzo[d]oxazol-5-yl)acrylamide]
IC50 [1]: > 2000 nM
GI50 ([2]; Homo sapiens, NCI-H226, 72 h): 250 to 1000 nM

C=CC(=O)Nc1cc2nc(CC3CC3C)oc2cc1F (stereo not shown) [Compound 145, N-(6-fluoro-2-((2-methylcyclopropyl)methyl)benzo[d]oxazol-5-yl)acrylamide]
IC50 [1]: 250 to 500 nM
GI50 ([2]; Homo sapiens, NCI-H226, 72 h): ≤ 250 nM

C=CC(=O)Nc1ccc2c(c1)OC(c1cccc(C(F)(F)F)c1)O2 (stereo not shown) [Compound 146, N-(2-(3-(trifluoromethyl)phenyl)benzo[d][1,3]dioxol-5-yl)acrylamide]
IC50 [1]: ≤ 250 nM
GI50 ([2]; Homo sapiens, NCI-H226, 72 h): ≤ 250 nM

C=C(F)C(=O)Nc1ccc2c(c1)OC(c1cccc(C(F)(F)F)c1)O2 (stereo not shown) [Compound 148, 2-fluoro-N-(2-(3-(trifluoromethyl)phenyl)benzo[d][1,3]dioxol-5-yl)acrylamide]
IC50 [1]: 500 to 2000 nM
GI50 ([2]; Homo sapiens, NCI-H226, 72 h): 250 to 1000 nM

C=C(F)C(=O)Nc1ccc(OCC2CCC(F)(F)CC2)c(F)c1 [Compound 149, N-(4-((4,4-difluorocyclohexyl)methoxy)-3-fluorophenyl)-2-fluoroacrylamide]
IC50 [1]: 250 to 500 nM
GI50 ([2]; Homo sapiens, NCI-H226, 72 h): ≤ 250 nM

C=CC(=O)Nc1ccc(-c2ccc(C(F)(F)F)cc2)c2ncccc12 [Compound 150, N-(8-(4-(trifluoromethyl)phenyl)quinolin-5-yl)acrylamide]
IC50 [1]: ≤ 250 nM
GI50 ([2]; Homo sapiens, NCI-H226, 72 h): ≤ 250 nM

C=CC(=O)Nc1ccc(-c2ccc(C(C)(C)C)cc2)c2ncccc12 [Compound 151, N-(8-(4-(tert-butyl)phenyl)quinolin-5-yl)acrylamide]
IC50 [1]: 250 to 500 nM
GI50 ([2]; Homo sapiens, NCI-H226, 72 h): ≤ 250 nM
